pKi: −log10 of the molar value. Read-outs that look alike come from different tables or passages of the source.
What was measured:
[1] = target: CDK2/Cyclin E1 full length (Homo sapiens (Human), UniProt P24941); assay: CDK2/Cyclin E1 full length mobility shift assay; format: biochemical
[2] = target: CDK1/cyclin A2 (Homo sapiens (Human), UniProt P06493); assay: CDK1/cyclin A2 biochemical assay
[3] = target: CDK9 (Homo sapiens (Human), UniProt P50750); assay: CDK9 biochemical assay
[4] = target: T1, GSK3β (H350L) (Homo sapiens (Human), UniProt P49841); conditions: read-out: GSK3β Ki
Description: (§1) The assay was initiated with the addition of ATP, following 15 minutes pre-incubation of enzyme and inhibitor at room temperature in the reaction mixture. The reaction was stopped after 30 minutes at room temperature by the addition of 50 μL of 80 mM EDTA.

[5] = target: CDK6/cyclin D3 (Homo sapiens (Human), UniProt Q00534); assay: CDK6/Cyclin D3 mobility shift assay; conditions: Biochemical Assay: CDK6/cyclin D3
Description: CDK6/Cyclin D3 Mobility Shift Assay

[6] = target: T1, GSK3β (H350L); assay: biochemical; conditions: GSK3β Ki (nM)
Description: as §1

T1 sequence (P49841 whole entry, stated change not applied): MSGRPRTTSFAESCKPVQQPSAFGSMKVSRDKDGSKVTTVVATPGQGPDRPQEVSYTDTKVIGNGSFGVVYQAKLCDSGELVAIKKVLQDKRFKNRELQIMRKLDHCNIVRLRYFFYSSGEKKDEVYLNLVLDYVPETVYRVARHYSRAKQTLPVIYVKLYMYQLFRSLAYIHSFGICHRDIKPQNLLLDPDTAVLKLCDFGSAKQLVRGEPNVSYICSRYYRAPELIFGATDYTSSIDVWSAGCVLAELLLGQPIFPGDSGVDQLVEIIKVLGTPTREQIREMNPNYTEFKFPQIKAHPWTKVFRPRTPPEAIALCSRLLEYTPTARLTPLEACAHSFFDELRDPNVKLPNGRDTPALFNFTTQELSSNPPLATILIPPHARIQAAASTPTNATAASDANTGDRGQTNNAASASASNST
Chain of CDK6/cyclin D3 (Q00534 whole entry, looked up): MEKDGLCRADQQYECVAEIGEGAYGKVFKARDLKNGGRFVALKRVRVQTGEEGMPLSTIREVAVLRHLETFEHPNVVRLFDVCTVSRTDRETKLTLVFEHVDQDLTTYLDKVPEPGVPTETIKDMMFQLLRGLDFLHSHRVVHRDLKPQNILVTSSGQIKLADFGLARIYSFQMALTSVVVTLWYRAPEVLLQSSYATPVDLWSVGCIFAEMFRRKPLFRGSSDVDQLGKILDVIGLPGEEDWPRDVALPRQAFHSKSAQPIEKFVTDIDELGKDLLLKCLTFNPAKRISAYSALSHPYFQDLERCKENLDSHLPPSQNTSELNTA
Chain of CDK6/cyclin D3 (P30281 whole entry partner, looked up): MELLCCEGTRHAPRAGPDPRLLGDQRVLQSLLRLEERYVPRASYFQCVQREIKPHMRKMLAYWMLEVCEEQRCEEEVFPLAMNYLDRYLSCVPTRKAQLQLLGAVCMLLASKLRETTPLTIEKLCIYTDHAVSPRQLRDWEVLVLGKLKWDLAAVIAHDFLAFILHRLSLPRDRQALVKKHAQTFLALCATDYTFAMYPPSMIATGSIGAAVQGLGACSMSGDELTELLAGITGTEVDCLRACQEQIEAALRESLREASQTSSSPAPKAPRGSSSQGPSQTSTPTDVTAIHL
Chain of CDK9 (P50750 whole entry, looked up): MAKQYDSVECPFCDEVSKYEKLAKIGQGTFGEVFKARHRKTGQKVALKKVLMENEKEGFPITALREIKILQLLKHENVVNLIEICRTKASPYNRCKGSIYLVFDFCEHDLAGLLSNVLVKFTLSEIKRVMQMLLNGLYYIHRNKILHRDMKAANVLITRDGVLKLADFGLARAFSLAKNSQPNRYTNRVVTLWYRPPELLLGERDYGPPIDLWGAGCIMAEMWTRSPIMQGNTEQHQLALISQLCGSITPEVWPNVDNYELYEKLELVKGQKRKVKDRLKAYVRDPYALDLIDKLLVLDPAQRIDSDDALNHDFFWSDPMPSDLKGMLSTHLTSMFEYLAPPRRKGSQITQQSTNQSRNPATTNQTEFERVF
Chain of CDK9 (O60563 whole entry partner, looked up): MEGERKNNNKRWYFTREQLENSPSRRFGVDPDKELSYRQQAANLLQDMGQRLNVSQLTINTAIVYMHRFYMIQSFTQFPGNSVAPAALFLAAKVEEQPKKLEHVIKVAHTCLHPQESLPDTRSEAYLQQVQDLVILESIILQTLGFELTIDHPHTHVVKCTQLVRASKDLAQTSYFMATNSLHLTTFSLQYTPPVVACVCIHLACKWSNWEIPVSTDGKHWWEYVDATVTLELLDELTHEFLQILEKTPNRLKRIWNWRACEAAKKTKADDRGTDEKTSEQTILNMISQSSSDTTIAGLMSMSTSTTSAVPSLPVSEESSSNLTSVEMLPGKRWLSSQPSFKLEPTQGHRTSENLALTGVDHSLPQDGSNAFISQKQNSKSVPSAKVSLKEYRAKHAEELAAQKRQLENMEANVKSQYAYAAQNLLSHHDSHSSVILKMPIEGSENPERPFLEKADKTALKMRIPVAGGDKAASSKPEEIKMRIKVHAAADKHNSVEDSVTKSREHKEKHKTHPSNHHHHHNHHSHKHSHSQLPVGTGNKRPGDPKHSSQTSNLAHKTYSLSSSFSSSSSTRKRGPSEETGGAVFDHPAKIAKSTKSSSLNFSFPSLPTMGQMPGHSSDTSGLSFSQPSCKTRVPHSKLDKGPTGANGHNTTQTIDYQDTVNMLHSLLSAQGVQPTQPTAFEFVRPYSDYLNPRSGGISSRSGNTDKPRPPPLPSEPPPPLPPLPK
Chain of CDK1/cyclin A2 (P06493 whole entry, looked up): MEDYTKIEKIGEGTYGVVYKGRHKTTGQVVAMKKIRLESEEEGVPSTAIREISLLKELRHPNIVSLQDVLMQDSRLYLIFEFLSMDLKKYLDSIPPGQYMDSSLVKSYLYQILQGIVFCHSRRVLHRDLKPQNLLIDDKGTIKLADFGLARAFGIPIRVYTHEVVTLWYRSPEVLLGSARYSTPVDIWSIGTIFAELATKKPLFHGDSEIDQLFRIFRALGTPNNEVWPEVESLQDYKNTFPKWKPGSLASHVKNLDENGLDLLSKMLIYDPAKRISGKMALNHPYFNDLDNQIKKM
Chain of CDK1/cyclin A2 (P20248 whole entry partner, looked up): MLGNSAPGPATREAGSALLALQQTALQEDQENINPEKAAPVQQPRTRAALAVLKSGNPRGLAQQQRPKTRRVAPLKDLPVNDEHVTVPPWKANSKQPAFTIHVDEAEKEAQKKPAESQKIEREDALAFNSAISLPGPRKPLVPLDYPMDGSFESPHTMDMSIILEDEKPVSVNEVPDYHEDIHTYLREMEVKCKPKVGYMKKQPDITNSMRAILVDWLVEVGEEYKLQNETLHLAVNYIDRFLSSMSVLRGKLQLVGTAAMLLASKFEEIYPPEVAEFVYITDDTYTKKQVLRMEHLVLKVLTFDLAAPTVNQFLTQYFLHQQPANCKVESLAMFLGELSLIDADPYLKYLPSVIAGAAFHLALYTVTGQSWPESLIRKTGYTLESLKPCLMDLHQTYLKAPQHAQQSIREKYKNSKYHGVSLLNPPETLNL

| Compound | pKi [1] | pKi [2] | pKi [3] | pKi [4] | pKi [5] | Ki [6] |
| --- | --- | --- | --- | --- | --- | --- |
| Cc1cc(CC(=O)Nc2cc([C@H]3CC[C@@H](OC(=O)NC4(C)CC4)C3)[nH]n2)on1 [Example 15, (1R,3S)-3-(3-{[(3-methyl-1,2-oxazol-5-yl)acetyl]amino}-1H-pyrazol-5-yl)cyclopentyl (1-methylcyclopropyl)carbamate] | 9.77 | 7.79 | 8.20 | 7.53 | 7.23 | – |
| Cc1cnc(CC(=O)Nc2cc([C@H]3CC[C@@H](OC(=O)NC4(C)CCOC4)C3)[nH]n2)o1 (single isomer, unassigned) [Example 477] | 8.98 | – | – | – | – | 59.2 nM |
| CC1(NC(=O)O[C@@H]2CC[C@H](c3cc(NC(=O)Cc4ccno4)n[nH]3)C2)CCOC1 (single isomer, unassigned) [Example 473] | 9.44 | – | – | – | – | 66.2 nM |
| COc1ccc(CC(=O)Nc2cc([C@H]3CC[C@@H](OC(=O)NC4(C)CCOC4)C3)[nH]n2)cc1 (single isomer, unassigned) [Example 484] | 9.49 | – | – | – | – | 30.3 nM |
| CCC(CO)CNC(=O)O[C@@H]1CC[C@H](c2cc(NC(=O)Cc3cc(C)no3)n[nH]2)C1 (single isomer, unassigned) [Example 524] | 8.77 | – | – | – | – | 10.9 nM |
| O=C(Cc1cc(F)cc(F)c1)Nc1cc([C@@H]2CC[C@H](OC(=O)NCC3CCCOC3)C2)[nH]n1 (single isomer, unassigned) [Example 515] | 8.90 | – | – | – | – | 11.3 nM |
| CC(CC(F)(F)F)NC(=O)O[C@@H]1CC[C@H](c2cc(NC(=O)Cc3ccno3)n[nH]2)C1 (single isomer, unassigned) [Example 86] | 9.60 | – | – | – | – | 12.9 nM |
| CC(CC(F)(F)F)NC(=O)O[C@@H]1CC[C@H](c2cc(NC(=O)c3ccnn3CCN(C)C)[nH]n2)C1 (single isomer, unassigned) [Example 410] | 9.38 | – | – | – | – | 55.5 nM |
| CC[C@H](C)NC(=O)O[C@@H]1CC[C@H](c2cc(NC(=O)Cc3ccno3)n[nH]2)C1 [Example 16, (1R,3S)-3-{3-[(1,2-oxazol-5-ylacetyl)amino]-1H-pyrazol-5-yl}cyclopentyl (2S)-butan-2-ylcarbamate] | 9.43 | – | – | – | – | 51.7 nM |
| CCCNC(=O)O[C@H]1CC[C@@H](c2cc(NC(=O)C3COc4ccccc43)n[nH]2)C1 (single isomer, unassigned) [Example 25] | 8.57 | – | – | – | – | 135 nM |
| COc1cc(CC(=O)Nc2cc([C@H]3CC[C@@H](OC(=O)N4C[C@@H](C#N)[C@@H]4C)C3)[nH]n2)ccn1 (single isomer, unassigned) [Example 155] | 9.89 | – | – | – | – | 1.63 nM |
| CC(CC(F)(F)F)N(C)C(=O)O[C@@H]1CC[C@H](c2cc(NC(=O)Cc3ccno3)n[nH]2)C1 (single isomer, unassigned) [Example 90] | 9.64 | – | – | – | – | 2.36 nM |
| CCC(NC(=O)O[C@@H]1CC[C@H](c2cc(NC(=O)Cc3cnc(C)s3)n[nH]2)C1)C(F)(F)F (single isomer, unassigned) [Example 404] | 8.86 | – | – | – | – | 84.3 nM |
| CC(CC(F)F)NC(=O)O[C@@H]1CC[C@H](c2cc(NC(=O)Cc3cnn(C)c3)n[nH]2)C1 (single isomer, unassigned) [Example 386] | 9.18 | – | – | – | – | 45.9 nM |
| CC1(NC(=O)O[C@@H]2CC[C@H](c3cc(NC(=O)Cc4cc(F)cc(F)c4)n[nH]3)C2)CCOC1 (single isomer, unassigned) [Example 120] | 10.05 | – | – | – | – | 34.9 nM |
| Cc1ccc(CC(=O)Nc2cc([C@H]3CC[C@@H](OC(=O)NC(C)C(C)(F)F)C3)[nH]n2)cn1 (single isomer, unassigned) [Example 389] | 9.08 | – | – | – | – | 18.3 nM |
| CC(C)NC(=O)O[C@@H]1CC[C@H](c2cc(NC(=O)C3COc4ccccc43)n[nH]2)C1 (single isomer, unassigned) [Example 56] | 9.60 | – | – | – | – | 42.8 nM |
| CC(CC(F)(F)F)NC(=O)O[C@@H]1CC[C@H](c2cc(NC(=O)Cc3cnco3)n[nH]2)C1 (single isomer, unassigned) [Example 84] | 10.00 | – | – | – | – | 12 nM |
| COc1ccc(CC(=O)Nc2cc([C@H]3CC[C@@H](OC(=O)NC4(C)CCOC4)C3)[nH]n2)cn1 (single isomer, unassigned) [Example 122] | 9.66 | – | – | – | – | 12.7 nM |
| CCC(NC(=O)O[C@@H]1CC[C@H](c2cc(NC(=O)Cc3ccc(C)nc3)n[nH]2)C1)C(F)(F)F (single isomer, unassigned) [Example 398] | 9.19 | – | – | – | – | 44.1 nM |
| COCc1cc(C(=O)Nc2cc([C@H]3CC[C@@H](OC(=O)NC(C)C)C3)[nH]n2)n(C)n1 [Example 13, (1R,3S)-3-[3-({[3-(methoxymethyl)-1-methyl-1H-pyrazol-5-yl]carbonyl}amino)-1H-pyrazol-5-yl]cyclopentyl propan-2-ylcarbamate] | – | – | 6.75 | 6.27 | 6.33 | – |
| CCC1(C)CCN1C(=O)O[C@@H]1CC[C@H](c2cc(NC(=O)Cc3cc(C)no3)n[nH]2)C1 (single isomer, unassigned) [Example 604] | 10.10 | – | – | – | – | 5 nM |
| Cc1cnc(CC(=O)Nc2cc([C@H]3CC[C@@H](OC(=O)NC(C)CC(F)F)C3)[nH]n2)o1 (single isomer, unassigned) [Example 97] | 9.41 | – | – | – | – | 18 nM |
| CCC(NC(=O)O[C@@H]1CC[C@H](c2cc(NC(=O)Cc3ccc(C)nc3)n[nH]2)C1)C(F)(F)F (single isomer, unassigned) [Example 399] | 9.33 | – | – | – | – | 68.8 nM |
| CCC(CO)CNC(=O)O[C@@H]1CC[C@H](c2cc(NC(=O)Cc3cc(C)no3)n[nH]2)C1 (single isomer, unassigned) [Example 525] | 8.91 | – | – | – | – | 7.01 nM |
| Cc1ccc(CC(=O)Nc2cc([C@H]3CC[C@@H](OC(=O)NC(C)C(C)(F)F)C3)[nH]n2)cn1 (single isomer, unassigned) [Example 388] | 8.63 | – | – | – | – | 36.9 nM |
| CCC(CO)CNC(=O)O[C@@H]1CC[C@H](c2cc(NC(=O)Cc3cnc(C)s3)n[nH]2)C1 (single isomer, unassigned) [Example 529] | 9.14 | – | – | – | – | 3.92 nM |
| COc1ncc(CC(=O)Nc2cc([C@H]3CC[C@@H](OC(=O)NC4(C)CCOC4)C3)[nH]n2)s1 (single isomer, unassigned) [Example 127] | 9.64 | – | – | – | – | 20.1 nM |
| CCCNC(=O)O[C@H]1CC[C@@H](c2cc(NC(=O)C3COc4ccccc43)n[nH]2)C1 (single isomer, unassigned) [Example 24] | 9.59 | – | – | – | – | 20.6 nM |
| CCC(CO)CNC(=O)O[C@@H]1CC[C@H](c2cc(NC(=O)Cc3ccc(OC)nc3)n[nH]2)C1 (single isomer, unassigned) [Example 533] | 9.11 | – | – | – | – | 1.41 nM |
